± gives the expanded uncertainty stated by the source.

The series is described as follows: activity coefficient (dimensionless); of the first substance listed, at infinite dilution; xn = mol fraction of the nth substance listed. As to conditions: 101.33 kPa, Liquid, Chromatography, x1 = 0.

For `CCCCCCCCCC` [decane] + CC[N+](C)(CC)CCOC.O=S(=O)([N-]S(=O)(=O)C(F)(F)F)C(F)(F)F, the activity coefficient worked out at 82 ± 7.1 (318.15 K); 72.7 ± 6.3 (328.15 K); 65.4 ± 5.7 (338.15 K); 58.1 ± 5 (348.15 K); 52.6 ± 4.6 (358.15 K).

Consider `CCOCC` [diethyl ether] + CC[N+](C)(CC)CCOC.O=S(=O)([N-]S(=O)(=O)C(F)(F)F)C(F)(F)F, for which the activity coefficient (318.15 K) was found to be 2.62 ± 0.23; the activity coefficient (328.15 K) amounted to 2.6 ± 0.22; the activity coefficient (338.15 K) worked out at 2.6 ± 0.22; the activity coefficient (348.15 K) worked out at 2.59 ± 0.22; the activity coefficient (358.15 K) amounted to 2.57 ± 0.22.

`CC(C)OC(C)C` [diisopropyl ether] + CC[N+](C)(CC)CCOC.O=S(=O)([N-]S(=O)(=O)C(F)(F)F)C(F)(F)F: the activity coefficient turned out to be 6.4 ± 0.55 (318.15 K); 6.28 ± 0.54 (328.15 K); 6.16 ± 0.53 (338.15 K); 6.03 ± 0.52 (348.15 K); 5.88 ± 0.51 (358.15 K).

Take `CCCOCCC` [dipropyl ether] + CC[N+](C)(CC)CCOC.O=S(=O)([N-]S(=O)(=O)C(F)(F)F)C(F)(F)F: the activity coefficient is, setting by setting: (318.15 K) 6.84 ± 0.59; (328.15 K) 6.58 ± 0.57; (338.15 K) 6.41 ± 0.55; (348.15 K) 6.25 ± 0.54; (358.15 K) 6.07 ± 0.52.

With `CCO` [ethanol] + CC[N+](C)(CC)CCOC.O=S(=O)([N-]S(=O)(=O)C(F)(F)F)C(F)(F)F, the activity coefficient stood at 1.77 ± 0.15 (318.15 K); 1.62 ± 0.14 (328.15 K); 1.5 ± 0.13 (338.15 K); 1.38 ± 0.12 (348.15 K); 1.28 ± 0.11 (358.15 K).

On to `CCc1ccccc1` [ethylbenzene] + CC[N+](C)(CC)CCOC.O=S(=O)([N-]S(=O)(=O)C(F)(F)F)C(F)(F)F, for which the activity coefficient reads like this: (318.15 K) 2.24 ± 0.19; (328.15 K) 2.25 ± 0.19; (338.15 K) 2.26 ± 0.19; (348.15 K) 2.28 ± 0.2; (358.15 K) 2.29 ± 0.2.

`CCCCCCC` [heptane] + CC[N+](C)(CC)CCOC.O=S(=O)([N-]S(=O)(=O)C(F)(F)F)C(F)(F)F: the activity coefficient reads like this: (318.15 K) 26.4 ± 2.3; (328.15 K) 24.4 ± 2.1; (338.15 K) 22.3 ± 1.9; (348.15 K) 21 ± 1.8; (358.15 K) 19.3 ± 1.7.

On to `C=CCCCC` [hex-1-ene] + CC[N+](C)(CC)CCOC.O=S(=O)([N-]S(=O)(=O)C(F)(F)F)C(F)(F)F, for which the activity coefficient is, setting by setting: (318.15 K) 9.21 ± 0.8; (328.15 K) 8.78 ± 0.76; (338.15 K) 8.33 ± 0.72; (348.15 K) 8.07 ± 0.7; (358.15 K) 7.64 ± 0.66.

As for `CCCCCC` [hexane] + CC[N+](C)(CC)CCOC.O=S(=O)([N-]S(=O)(=O)C(F)(F)F)C(F)(F)F, the activity coefficient (318.15 K) was 18.2 ± 1.6; the activity coefficient (328.15 K) amounted to 16.9 ± 1.5; the activity coefficient (338.15 K) is 15.8 ± 1.4; the activity coefficient (348.15 K) is 14.9 ± 1.3; the activity coefficient (358.15 K) is 14 ± 1.2.

Regarding `CO` [methanol] + CC[N+](C)(CC)CCOC.O=S(=O)([N-]S(=O)(=O)C(F)(F)F)C(F)(F)F, the activity coefficient is 1.33 ± 0.11 (318.15 K); 1.26 ± 0.11 (328.15 K); 1.15 ± 0.1 (338.15 K); 1.09 ± 0.09 (348.15 K); 1.01 ± 0.08 (358.15 K).

For the compound `CC1CCCCC1` [methylcyclohexane] + CC[N+](C)(CC)CCOC.O=S(=O)([N-]S(=O)(=O)C(F)(F)F)C(F)(F)F, the activity coefficient reads like this: (318.15 K) 14.9 ± 1.3; (328.15 K) 13.8 ± 1.2; (338.15 K) 12.9 ± 1.1; (348.15 K) 12 ± 1; (358.15 K) 11.2 ± 1.

In the case of `CCCCCCCCC` [nonane] + CC[N+](C)(CC)CCOC.O=S(=O)([N-]S(=O)(=O)C(F)(F)F)C(F)(F)F, the activity coefficient (318.15 K) is 55.7 ± 4.8; the activity coefficient (328.15 K) was 50 ± 4.3; the activity coefficient (338.15 K) was 45.3 ± 3.9; the activity coefficient (348.15 K) amounted to 41 ± 3.5; the activity coefficient (358.15 K) was found to be 37.7 ± 3.3.

With `C=CCCCCCC` [oct-1-ene] + CC[N+](C)(CC)CCOC.O=S(=O)([N-]S(=O)(=O)C(F)(F)F)C(F)(F)F, the activity coefficient runs as follows: (318.15 K) 19.6 ± 1.7; (328.15 K) 18.3 ± 1.6; (338.15 K) 17.1 ± 1.5; (348.15 K) 16.2 ± 1.4; (358.15 K) 15.2 ± 1.3.

Consider `CCCCCCCC` [octane] + CC[N+](C)(CC)CCOC.O=S(=O)([N-]S(=O)(=O)C(F)(F)F)C(F)(F)F, for which the activity coefficient runs as follows: (318.15 K) 38.3 ± 3.3; (328.15 K) 34.8 ± 3; (338.15 K) 31.9 ± 2.8; (348.15 K) 29.5 ± 2.6; (358.15 K) 27 ± 2.3.

Turning to `CCCC(C)=O` [pentan-2-one] + CC[N+](C)(CC)CCOC.O=S(=O)([N-]S(=O)(=O)C(F)(F)F)C(F)(F)F, the activity coefficient reads like this: (318.15 K) 0.853 ± 0.071; (328.15 K) 0.862 ± 0.072; (338.15 K) 0.87 ± 0.072; (348.15 K) 0.884 ± 0.073; (358.15 K) 0.896 ± 0.074.

As for `CCC(=O)CC` [pentan-3-one] + CC[N+](C)(CC)CCOC.O=S(=O)([N-]S(=O)(=O)C(F)(F)F)C(F)(F)F, the activity coefficient was 0.852 ± 0.071 (318.15 K); 0.873 ± 0.072 (328.15 K); 0.889 ± 0.074 (338.15 K); 0.906 ± 0.075 (348.15 K); 0.916 ± 0.076 (358.15 K).

Turning to `CCCO` [propan-1-ol] + CC[N+](C)(CC)CCOC.O=S(=O)([N-]S(=O)(=O)C(F)(F)F)C(F)(F)F, the activity coefficient came to 2.26 ± 0.19 (318.15 K); 2.04 ± 0.18 (328.15 K); 1.87 ± 0.16 (338.15 K); 1.72 ± 0.15 (348.15 K); 1.59 ± 0.13 (358.15 K).

For the compound `CC(C)O` [propan-2-ol] + CC[N+](C)(CC)CCOC.O=S(=O)([N-]S(=O)(=O)C(F)(F)F)C(F)(F)F, the activity coefficient runs as follows: (318.15 K) 2.04 ± 0.18; (328.15 K) 1.84 ± 0.16; (338.15 K) 1.7 ± 0.14; (348.15 K) 1.56 ± 0.13; (358.15 K) 1.44 ± 0.12.

As to `c1ccncc1` [pyridine] + CC[N+](C)(CC)CCOC.O=S(=O)([N-]S(=O)(=O)C(F)(F)F)C(F)(F)F, the activity coefficient (318.15 K) was 0.6 ± 0.053; the activity coefficient (328.15 K) came out at 0.604 ± 0.053; the activity coefficient (338.15 K) was found to be 0.607 ± 0.053; the activity coefficient (348.15 K) is 0.615 ± 0.054; the activity coefficient (358.15 K) is 0.619 ± 0.054.

As for `C=Cc1ccccc1` [styrene] + CC[N+](C)(CC)CCOC.O=S(=O)([N-]S(=O)(=O)C(F)(F)F)C(F)(F)F, the activity coefficient stood at 1.3 ± 0.11 (318.15 K); 1.3 ± 0.11 (328.15 K); 1.31 ± 0.11 (338.15 K); 1.34 ± 0.11 (348.15 K); 1.36 ± 0.11 (358.15 K).

Regarding `C1CCOC1` [tetrahydrofuran] + CC[N+](C)(CC)CCOC.O=S(=O)([N-]S(=O)(=O)C(F)(F)F)C(F)(F)F, the activity coefficient is 0.817 ± 0.068 (318.15 K); 0.83 ± 0.069 (328.15 K); 0.845 ± 0.07 (338.15 K); 0.862 ± 0.072 (348.15 K); 0.867 ± 0.072 (358.15 K).

Turning to `c1ccsc1` [thiophene] + CC[N+](C)(CC)CCOC.O=S(=O)([N-]S(=O)(=O)C(F)(F)F)C(F)(F)F, the activity coefficient (318.15 K) came out at 0.906 ± 0.075; the activity coefficient (328.15 K) amounted to 0.912 ± 0.075; the activity coefficient (338.15 K) was 0.925 ± 0.076; the activity coefficient (348.15 K) was found to be 0.937 ± 0.077; the activity coefficient (358.15 K) was 0.94 ± 0.077.

With `Cc1ccccc1` [toluene] + CC[N+](C)(CC)CCOC.O=S(=O)([N-]S(=O)(=O)C(F)(F)F)C(F)(F)F, the activity coefficient runs as follows: (318.15 K) 1.47 ± 0.12; (328.15 K) 1.48 ± 0.13; (338.15 K) 1.5 ± 0.13; (348.15 K) 1.52 ± 0.13; (358.15 K) 1.53 ± 0.13.

For the compound `O` [water] + CC[N+](C)(CC)CCOC.O=S(=O)([N-]S(=O)(=O)C(F)(F)F)C(F)(F)F, the activity coefficient reads like this: (318.15 K) 1.9 ± 0.16; (328.15 K) 1.73 ± 0.15; (338.15 K) 1.6 ± 0.14; (348.15 K) 1.46 ± 0.12; (358.15 K) 1.32 ± 0.11.

The values are drawn from the NIST ThermoML archive (doi:10.1016/j.jct.2016.07.017).
